Structures are written as SMILES.

The experiment addresses T1, human TLR8 (Homo sapiens, UniProt Q9NR97).
T1 construct: host or cells: HEK293 (HEK-Blue hTLR8)
T1 sequence (Q9NR97 27-1041): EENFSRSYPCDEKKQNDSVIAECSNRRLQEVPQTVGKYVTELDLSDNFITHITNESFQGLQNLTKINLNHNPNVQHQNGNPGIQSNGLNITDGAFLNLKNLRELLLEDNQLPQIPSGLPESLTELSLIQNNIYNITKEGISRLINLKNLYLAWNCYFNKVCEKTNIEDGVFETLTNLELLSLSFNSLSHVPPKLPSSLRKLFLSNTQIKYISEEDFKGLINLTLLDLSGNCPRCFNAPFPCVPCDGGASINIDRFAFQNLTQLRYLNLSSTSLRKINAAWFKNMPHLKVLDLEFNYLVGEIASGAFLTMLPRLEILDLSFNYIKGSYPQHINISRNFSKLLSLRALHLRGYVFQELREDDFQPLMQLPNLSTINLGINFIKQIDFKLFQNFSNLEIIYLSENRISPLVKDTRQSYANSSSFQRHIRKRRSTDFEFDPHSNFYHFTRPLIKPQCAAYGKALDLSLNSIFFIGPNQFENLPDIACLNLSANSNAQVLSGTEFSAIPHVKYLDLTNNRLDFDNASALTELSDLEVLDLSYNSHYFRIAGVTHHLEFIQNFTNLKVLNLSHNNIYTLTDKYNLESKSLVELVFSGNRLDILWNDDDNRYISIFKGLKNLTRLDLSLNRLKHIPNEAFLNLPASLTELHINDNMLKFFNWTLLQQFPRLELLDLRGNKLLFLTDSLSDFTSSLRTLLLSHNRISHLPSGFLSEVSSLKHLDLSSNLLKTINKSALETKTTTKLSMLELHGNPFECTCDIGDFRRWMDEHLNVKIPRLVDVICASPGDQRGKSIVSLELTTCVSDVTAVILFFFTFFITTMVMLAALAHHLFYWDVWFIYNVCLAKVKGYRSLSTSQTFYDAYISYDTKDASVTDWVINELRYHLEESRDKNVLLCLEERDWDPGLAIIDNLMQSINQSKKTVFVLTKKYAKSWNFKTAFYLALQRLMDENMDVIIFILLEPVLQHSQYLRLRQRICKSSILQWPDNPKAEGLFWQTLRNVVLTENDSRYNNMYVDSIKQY
The experiment in a line: HEK293-Blue-hTLR-8 cells assay (SEAP reporter, R848 stimulation). Format: cell-based. The conditions noted are these: HEK293-Blue-hTLR8 cells, R848 ligand, 20 hrs incubation; read-out: HEK/hTLR8 IC50. The text has this: HEK293-Blue-hTLR-8 Cells Assay:
A stable HEK293-Blue-hTLR-8 cell line was purchased from InvivoGen (Cat. #: hkb-htlr8, San Diego, Calif., USA). These cells were originally designed for studying the stimulation of human TLR8 by monitoring the activation of NF-κB. A SEAP (secreted embryonic alkaline phosphatase) reporter gene was placed under the control of the IFN-β minimal promoter fused to five NF-κB and AP-1-binding sites. The SEAP was induced by activating NF-κB and AP-1 via stimulating HEK-Blue hTLR8 cells with TLR8 ligands. Therefore the reporter expression was declined by TLR8 antagonist under the stimulation of a ligand, such as R848, for incubation of 20 hrs. The cell culture supernatant SEAP reporter activity was determined using QUANTI-Blue™ kit (Cat. #: rep-qb1, Invivogen, San Diego, Ca, USA) at a wavelength of 640 nm, a detection medium that turns purple or blue in the presence of alkaline phosphatase.
HEK293-Blue-hTLR8 cells were incubated at a density of 250,000-450,000 cells/mL in a volume of 170 μL in a 96-well plate in Dulbecco's Modified Eagle's medium (DMEM) containing 4.5 g/L glucose, 50 U/mL penicillin, […], […], 2 mM L-glutamine, 10% (v/v) heat-inactivated fetal bovine serum with addition of 20 μL test compound in a serial dilution in the presence of final DMSO at 1% and 10 μL of 60 uM R848 in above DMEM, perform incubation under 37° C. in a CO2 incubator for 20 hrs. Then 20 μL of the supernatant from each well was incubated with 180 μL Quanti-blue substrate solution at 37° C. for 2 hrs and the absorbance was read at 620-655 nm using a spectrophotometer. The signaling pathway that TLR8 activation leads to downstream NF-κB activation has been widely accepted, and therefore similar reporter assay was modified for evaluating TLR8 antagonist.
Turning to `C[C@@H]1CN(c2cc(=O)n(C)c3ncccc23)C[C@@H]2c3ccc(N4CC(C)(N)C4)cc3CN12` [Example 1, 4-[(4R,10bS)-8-(3-amino-3-methyl-azetidin-1-yl)-4-methyl-3,4,6,10b-tetrahydro-1H-pyrazino[2,1-a]isoindol-2-yl]-1-methyl-1,8-naphthyridin-2-one], the IC50 is 2.9 nM.
Regarding `C[C@@H]1CN(c2cc(=O)n(C)c3ncccc23)C[C@@H]2c3ccc(N4CC5(CN(C)C5)C4)cc3CN12` [Example 2, 4-[(4R,10bS)-4-methyl-8-(6-methyl-2,6-diazaspiro[3.3]heptan-2-yl)-3,4,6,10b-tetrahydro-1H-pyrazino[2,1-a]isoindol-2-yl]-1-methyl-1,8-naphthyridin-2-one], the IC50 was 1.7 nM.
Take `C[C@@H]1CN(c2cc(=O)n(C)c3ncccc23)C[C@@H]2c3ccc(N4CC5(CNCCO5)C4)cc3CN12` [Example 3, 4-[(4R,10bS)-4-methyl-8-(5-oxa-2,8-diazaspiro[3.5]nonan-2-yl)-3,4,6,10b-tetrahydro-1H-pyrazino[2,1-a]isoindol-2-yl]-1-methyl-1,8-naphthyridin-2-one]: the IC50 turned out to be 2.6 nM.
The same measure for `C[C@@H]1CN(c2cc(=O)n(C)c3ncccc23)C[C@@H]2c3ccc(N4CC[C@@](C)(N)C4)cc3CN12` [Example 4, 4-[(4R,10bS)-8-[(3R)-3-amino-3-methyl-pyrrolidin-1-yl]-4-methyl-3,4,6,10b-tetrahydro-1H-pyrazino[2,1-a]isoindol-2-yl]-1-methyl-1,8-naphthyridin-2-one]: 2.9 nM.
The same measure for `CO[C@@H]1CN(c2ccc3c(c2)CN2[C@H](C)CN(c4cc(=O)n(C)c5ncccc45)C[C@H]32)C[C@H]1N` [Example 5, 4-[(4R,10bS)-8-[(3R,4R)-3-amino-4-methoxy-pyrrolidin-1-yl]-4-methyl-3,4,6,10b-tetrahydro-1H-pyrazino[2,1-a]isoindol-2-yl]-1-methyl-1,8-naphthyridin-2-one]: 11.5 nM; for `C[C@@H]1CN(c2cc(=O)n(C)c3ncccc23)C[C@@H]2c3ccc(N4C[C@H]5NCCO[C@@H]5C4)cc3CN12` [Example 6, 4-[(4R,10bS)-8-[(4aR,7aR)-3,4,4a,5,7,7a-hexahydro-2H-pyrrolo[3,4-b][1,4]oxazin-6-yl]-4-methyl-3,4,6,10b-tetrahydro-1H-pyrazino[2,1-a]isoindol-2-yl]-1-methyl-1,8-naphthyridin-2-one]: 4.9 nM; for `C[C@@H]1CN(c2cc(=O)n(C)c3ncccc23)C[C@@H]2c3ccc(N4C[C@@H](N)[C@@H](F)C4)cc3CN12` [Example 7, 4-[(4R,10bS)-8-[(3R,4S)-3-amino-4-fluoro-pyrrolidin-1-yl]-4-methyl-3,4,6,10b-tetrahydro-1H-pyrazino[2,1-a]isoindol-2-yl]-1-methyl-1,8-naphthyridin-2-one]: 5.9 nM.
Take `CO[C@H]1CN(c2ccc3c(c2)CN2[C@H](C)CN(c4cc(=O)n(C)c5ncccc45)C[C@H]32)CC[C@@H]1N` [Example 8, 4-[(4R,10bS)-8-[(3S,4S)-4-amino-3-methoxy-1-piperidyl]-4-methyl-3,4,6,10b-tetrahydro-1H-pyrazino[2,1-a]isoindol-2-yl]-1-methyl-1,8-naphthyridin-2-one]: the IC50 was 7.3 nM.
For `CO[C@H]1CCN(c2ccc3c(c2)CN2[C@H](C)CN(c4cc(=O)n(C)c5ncccc45)C[C@H]32)C[C@@H]1N` [Example 9, 4-[(4R,10bS)-8-[(3S,4S)-3-amino-4-methoxy-1-piperidyl]-4-methyl-3,4,6,10b-tetrahydro-1H-pyrazino[2,1-a]isoindol-2-yl]-1-methyl-1,8-naphthyridin-2-one], the IC50 was 1.5 nM.
The figure for `COC[C@@H]1CNCCN1c1ccc2c(c1)CN1[C@H](C)CN(c3cc(=O)n(C)c4ncccc34)C[C@H]21` [Example 10, 4-[(4R,10bS)-8-[(2S)-2-(methoxymethyl)piperazin-1-yl]-4-methyl-3,4,6,10b-tetrahydro-1H-pyrazino[2,1-a]isoindol-2-yl]-1-methyl-1,8-naphthyridin-2-one] is 4 nM; for `C[C@@H]1CN(c2cc(=O)n(C)c3ncccc23)C[C@@H]2c3ccc(N4CCOC5(CNC5)C4)cc3CN12` [Example 11, 4-[(4R,10bS)-4-methyl-8-(5-oxa-2,8-diazaspiro[3.5]nonan-8-yl)-3,4,6,10b-tetrahydro-1H-pyrazino[2,1-a]isoindol-2-yl]-1-methyl-1,8-naphthyridin-2-one] it is 24.1 nM; for `C[C@@H]1CN(c2cc(=O)n(C)c3ncccc23)C[C@@H]2c3ccc(N4CCNCC4)cc3CN12` [Example 12, 4-[(4R,10bS)-4-methyl-8-piperazin-1-yl-3,4,6,10b-tetrahydro-1H-pyrazino[2,1-a]isoindol-2-yl]-1-methyl-1,8-naphthyridin-2-one] it is 0.8 nM.
The figure for `C[C@@H]1CN(c2cc(=O)n(C)c3ncccc23)C[C@@H]2c3ccc(N4CCN[C@@H](C)C4)cc3CN12` [Example 13, 4-[(4R,10bS)-4-methyl-8-[(3S)-3-methylpiperazin-1-yl]-3,4,6,10b-tetrahydro-1H-pyrazino[2,1-a]isoindol-2-yl]-1-methyl-1,8-naphthyridin-2-one] is 1.3 nM; for `C[C@@H]1CN(c2ccc3c(c2)CN2[C@H](C)CN(c4cc(=O)n(C)c5ncccc45)C[C@H]32)CCN1` [Example 14, 4-[(4R,10bS)-4-methyl-8-[(3R)-3-methylpiperazin-1-yl]-3,4,6,10b-tetrahydro-1H-pyrazino[2,1-a]isoindol-2-yl]-1-methyl-1,8-naphthyridin-2-one] it is 1 nM.
The same measure for `C[C@@H]1CN(c2cc(=O)n(C)c3ncccc23)C[C@@H]2c3ccc(N4CCC[C@](C)(N)C4)cc3CN12` [Example 15, 4-[(4R,10bS)-8-[(3S)-3-amino-3-methyl-1-piperidyl]-4-methyl-3,4,6,10b-tetrahydro-1H-pyrazino[2,1-a]isoindol-2-yl]-1-methyl-1,8-naphthyridin-2-one]: 7.2 nM; for `C[C@@H]1CN(c2cc(=O)n(C)c3ncccc23)C[C@@H]2c3ccc(N4CCC[C@@H](N)C4)cc3CN12` [Example 16, 4-[(4R,10bS)-8-[(3R)-3-amino-1-piperidyl]-4-methyl-3,4,6,10b-tetrahydro-1H-pyrazino[2,1-a]isoindol-2-yl]-1-methyl-1,8-naphthyridin-2-one]: 3.9 nM.
For the compound `C[C@@H]1CNCCN1c1ccc2c(c1)CN1[C@H](C)CN(c3cc(=O)n(C)c4ncccc34)C[C@H]21` [Example 17, 4-[(4R,10bS)-4-methyl-8-[(2R)-2-methylpiperazin-1-yl]-3,4,6,10b-tetrahydro-1H-pyrazino[2,1-a]isoindol-2-yl]-1-methyl-1,8-naphthyridin-2-one], the IC50 was less than 0.3 nM.
The same measure for `C[C@@H]1CN(c2cc(=O)n(C)c3ncccc23)C[C@@H]2c3ccc(N4CCC(C)(N)CC4)cc3CN12` [Example 18, 4-[(4R,10bS)-8-(4-amino-4-methyl-1-piperidyl)-4-methyl-3,4,6,10b-tetrahydro-1H-pyrazino[2,1-a]isoindol-2-yl]-1-methyl-1,8-naphthyridin-2-one]: 2.5 nM.

Source of the values: patent publication US20230041743A1, “1,8-NAPHTHYRIDIN-2-ONE COMPOUNDS FOR THE TREATMENT OF AUTOIMMUNE DISEASE” (Hoffmann-La Roche Inc., priority 2019, published 2023).
